Test results published in patent US20230227566A1, “AMHRII-BINDING COMPOUNDS FOR PREVENTING OR TREATING LUNG CANCERS” (GAMAMABS PHARMA, priority 2017, published 2023).

Key:
SC131 tumor model = assay: response of SC131 tumor model to standard-of-care agents; type: in vivo, mouse; details: data obtained on swiss nude mice
Source text: Human tumor samples of various histological origins were obtained with informed consent from patients treated at cancer centers and established as transplantable xenografts in immunodeficient mice. The grafted samples are residual material from primary tumors or metastases obtained before or after treatment. These patient-derived xenograft (PDX) models have been established without prior in vitro culture and have been studied for histology, cytogenetics, genetic and other biological markers, and for their response to standard-of-care (SOC) therapies.
SC131 is low responder to docetaxel and to the combination cisplatin/gemcitabine, and no responder to the other agents tested (data obtained on swiss nude mice).

[1] = tested on: SC131 patient-derived non-small-cell lung xenograft; assay: antitumor efficacy study XTS-1526 in SC131 patient-derived xenograft; details: for CR (complete regression), number of mice / TFS (Tumor Free Survivor), number of mice / TS (Tumor Stabilization), number of mice / PR (partial regression), number of mice: 9 mice per group; for antitumor efficacy compared with control group 1 (in words): Mann-Whitney test vs vehicle; for TGDI (Tumor Growth Delay Index): TGD treated/TGD control, same regimens; for TS (Tumor Stabilization), number of mice: constant tumor size during at least 3 consecutive measurements; for Best T/C%: day of best T/C D16 (G6: D11); for T/C % at day 16: mean tumor volume treated/control x100, day 16; for median TGD x 5: time to reach 5x D0 tumor volume, GM102 20 mg/kg IV 2qwk, docetaxel 20 mg/kg slow IV D0, cisplatin 5 + gemcitabine 100 mg/kg IP qwk; for PR (partial regression), number of mice: tumor size lower than initial during at least 3 consecutive measurements;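 as to all read-outs here: subcutaneous tumor fragments grafted in mice, tumor volume from caliper diameters (length × width²/2) taken three times weekly during treatment, each treated group compared against vehicle controls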
Source text: Fifty-four (54) mice with a subcutaneously growing SC131 tumor (P22.1.3/0) between 62.5 and 220.5 mm^3 were allocated to treatment when the mean and median tumor volume reached 130.76 and 126.00 mm^3 respectively.
Tumors of the same passage were transplanted subcutaneously onto 3-24 mice (donor mice, passage (n−1)). When these tumors reached 700 to 2000 mm^3, donor mice were sacrificed by cervical dislocation, tumors were aseptically excised and dissected. After removing necrotic areas, tumors were cut into fragments measuring approximately 20 mm^3 and transferred in culture medium before grafting.
Eighty-nine (89) mice were anaesthetized with 100 mg/kg ketamine hydrochloride (batch 5D92—exp: 03-2017, Virbac) and 10 mg/kg xylazine (batch KP0AX9X, Bayer), and then skin was aseptized with a chlorhexidine solution, incised at the level of the interscapular region, and a 20 mm^3 tumor fragment was placed in the subcutaneous tissue. Skin was closed with clips.
Treatments were randomly attributed to boxes housing up to 5 mice and were initiated 18 days post implantation of the tumor (60% inclusion rate with staggered inclusion). The study was staggered-included with 5 mice included per group first, then 4 mice included per group 2 days later. The study was terminated following 31 days after the start of treatment.
For the additional groups 7 and 8, tumor size was higher and more heterogeneous. Animals were included 32 days post implantation.
Tumor volume was evaluated by measuring tumor diameters, with a caliper, three times a week during the treatment period. The formula TV (mm^3)=[length (mm)×width (mm)^2]/2 was used, where the length and the width are the longest and the shortest diameters of the tumor, respectively.
For the groups 1 to 6, each group initially included 9 mice. For the groups 7 and 8, each group initially included 8 mice.
Individual tumor growth delays (TGD) was calculated as the time in days required for individual tumors to reach 3- to 5-fold the initial tumor volume.
The tumor growth delay index (TGDI) was calculated as the median growth delay in the treated group divided by the median growth delay in the control group.
The percentage ratio between the mean tumor volume of a treated group (T) and the mean tumor volume of the control group (C) was calculated.
Statistical analysis was done for each measurement by Mann-Whitney non parametric comparison test. Each treated group was compared with control group.
Tumor Stabilization (TS) was defined as the number of mice presenting a constant tumor size during at least 3 consecutive measurements.
Partial tumor Regression (PR) was defined as the number of mice presenting a tumor size lower than initial tumor size during at least 3 consecutive measurements.

[2] = tolerability (body weight, clinical observations) in study XTS-1526
Method: Adverse effect of the different treatments was determined as: • Relative Body Weight (RBW) will be calculated for each measurement by dividing the body weight by the body weight at the start of treatment. • Individual Body weight loss percent (% BWL)=100−(BWx/BW0×100), where BWx is the BW at any day during the treatment and BW0 is the BW on the 1st day of treatment.
Mice were observed every day for physical appearance, behavior and clinical changes.
Animals were sacrificed based on the following criteria: • Body weight loss (BWL)≥20% compared to the 1st day of treatment for 48 consecutive hours (3 measurements). • General alteration of behaviour or clinical signs. • Tumor volume ≥2000 mm^3.
Mean Body weight loss percent (% BWL)=100−(mean BWx/mean BW0x 100), where BWx is the mean BW at any day during the treatment and BW0 is the mean BW on the 1st day of treatment.

[3] = target: T1, human Anti-Mullerian Hormone type II Receptor (AMHRII) (human, UniProt Q16671 18-573); assay: immunohistochemistry (immunoperoxidase, biotinylated antibody) on AMHR2-transfected COV434 cells
T1 construct: also called AMHR2; MISRII
T1 sequence: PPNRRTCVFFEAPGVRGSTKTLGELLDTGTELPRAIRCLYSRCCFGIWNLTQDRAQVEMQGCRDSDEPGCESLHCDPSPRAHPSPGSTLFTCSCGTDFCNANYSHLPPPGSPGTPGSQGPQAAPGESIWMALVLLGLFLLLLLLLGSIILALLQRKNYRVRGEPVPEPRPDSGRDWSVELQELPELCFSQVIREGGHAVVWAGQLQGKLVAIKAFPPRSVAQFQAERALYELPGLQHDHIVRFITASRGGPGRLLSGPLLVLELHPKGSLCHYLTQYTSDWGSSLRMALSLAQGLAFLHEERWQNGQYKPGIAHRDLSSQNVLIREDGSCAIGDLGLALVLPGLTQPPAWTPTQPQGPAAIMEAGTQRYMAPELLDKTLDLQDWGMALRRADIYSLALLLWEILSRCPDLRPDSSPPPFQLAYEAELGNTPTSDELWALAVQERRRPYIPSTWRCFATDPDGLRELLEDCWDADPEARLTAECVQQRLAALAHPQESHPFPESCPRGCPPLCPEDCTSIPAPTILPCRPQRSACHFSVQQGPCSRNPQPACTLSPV

AMHRII = target: T2, AMHRII (Homo sapiens, UniProt Q16671); assay: binding of 3C23K antibody to AMHRII (Kd)
T2 sequence (Q16671 18-573): T1 sequence

[4] = tested on: AMHR2-transfected human tumor cell lines; details: cited from earlier work
[5] = tested on: LXFE2226 squamous non-small cell lung cancer model tumor xenografts; assay: antitumor efficacy in LXFE2226 tumor xenografts; type: in vivo, mouse
Source text: Tumor fragments were obtained from xenografts in serial passage in nude mice. After removal from donor mice, tumors were cut into fragments (3-4 mm edge length) and placed in PBS containing 10% penicillin/streptomycin. Recipient animals were anesthetized by inhalation of isoflurane and received unilateral or bilateral tumor implants subcutaneously in the flank.
LXFE2226 squamous non-small cell lung cancer model tumor xenografts were implanted subcutaneously with one tumor per mouse (NMRI-Foxn1^nu from Charles River). The experiment consisted of two groups of mice from which three of them were euthanized on day 15 for detecting membranous AMHRII expression by flow cytometry. The first group was a vehicle control group and the second group received the investigational antibody GM102, which was administered intraperitoneally (i.p.) twice weekly at a dose level of 20 mg/kg.
Antitumor efficacy was evaluated as minimum T/C value by comparison of group median relative tumor volumes (RTVs) on the days where the optimal efficacy was reached. The experiment was terminated on day 43 after a two-week dosing-free observation period.

With `CC(=O)O[C@@]12CO[C@@H]1C[C@H](O)[C@@]1(C)C(=O)[C@H](O)C3=C(C)[C@@H](OC(=O)[C@H](O)[C@@H](NC(=O)OC(C)(C)C)c4ccccc4)C[C@@](O)([C@@H](OC(=O)c4ccccc4)[C@H]21)C3(C)C` [Docetaxel] the “response of SC131 to the agent (in words)” value (SC131 tumor model) was “low responder”, the “CR (complete regression), number of mice” value [1] was 0 and the “TFS (Tumor Free Survivor), number of mice” value [1] was 0. For the same molecule, the “antitumor efficacy compared with control group 1 (in words)” value [1] was “strong and statistically significant”, the “TGDI (Tumor Growth Delay Index)” value [1] was greater than 2.71 and the “TGDI (Tumor Growth Delay Index)” value ([1]; listed as docetaxel) was greater than 2.71. For the same molecule, the “TS (Tumor Stabilization), number of mice” value [1] was 7, the “TS (Tumor Stabilization), number of mice” value ([1]; listed as docetaxel) was 7/9 and the “Mann-Whitney analysis on tumor volume vs vehicle, day 4” value ([1]; day 4) was “** (P < 0.01)”. For the same molecule, the “Mann-Whitney analysis on tumor volume vs vehicle, day 7” value ([1]; day 7) was “*** (P < 0.001)”, the “Mann-Whitney analysis on tumor volume vs vehicle, day 9” value ([1]; day 9) was “*** (P < 0.001)” and the “Mann-Whitney analysis on tumor volume vs vehicle, day 11” value ([1]; day 11) was “*** (P < 0.001)”. For the same molecule, the “Mann-Whitney analysis on tumor volume vs vehicle, day 14” value ([1]; day 14) was “*** (P < 0.001)”, the “Mann-Whitney analysis on tumor volume vs vehicle, day 16” value ([1]; day 16) was “*** (P < 0.001)” and the “Best T/C%” value [1] was 11.00%. The “Best T/C%” value ([1]; listed as docetaxel) was 11.00%, the “T/C % at day 16” value [1] was 11.00% and the “median TGD x 5” value [1] was greater than 28 days. For the same molecule, the “PR (partial regression), number of mice” value [1] was 2, the “PR (partial regression), number of mice” value ([1]; listed as docetaxel) was 2/9 and the “mice that had to be sacrificed before the end of the study” value ([2]; despite DietGel, 9 mice per group (groups 7, 8: 8)) was 4. For the same molecule, the “maximum individual body weight loss” value ([2]; mouse, in vivo) was 23.8% and the “maximum mean body weight loss” value ([2]; mouse, in vivo) was 17.0%.

B1: 3C23K anti-AMHRII monoclonal antibody (antibody, human IgG1, kappa, V domains shown)
VH: QVRLVQSGAEVKKPGASVKVSCKASGYTFTSYHIHWVRQAPGQRLEWMGWIYPGDDSTKYSQKFQGRVTITRDTSASTAYMELSSLRSEDTAVYYCTRGDRFAYWGQGTLVTVSS
VL: DIQMTQSPSTLSASVGDRVTITCRASSSVRYIAWYQQKPGKAPKLLTYPTSSLKSGVPSRFSGSGSGTEFTLTISSLQPDDFATYYCLQWSSYPWTFGGGTKVEIKR
notes: Humanized mAb; GM102 is described as a low fucose form; also called GM102; 3C23K-AF
B1: binds [3].

B2: GM102: humanized anti-AMHRII (AMHR2) monoclonal antibody, low fucose; VH SEQ ID NO 19, VL SEQ ID NO 36 (antibody, V domains shown)
VH: B1 VH
VL: DIQMTQSPSTLSASVGDRVTITCRASSSVRYIAWYQQKPGKAPKLLTYPTSSLKSGVPSRFSGSGSGTEFTLTISSLQPDDFATYYCLQWSSYPWTFGGGTKVEIK
modifications: low fucose; Synthetic 3C23K/3C23; Synthetic 3C23K
For B2, the “CR (complete regression), number of mice” value [1] was 0, the “TFS (Tumor Free Survivor), number of mice” value [1] was 0 and the tumor growth inhibition ([1]; GM102 alone, did not reach statistical significance) was 25%. The “antitumor efficacy compared with control group 1 (in words)” value [1] was “did not demonstrate any antitumor efficacy”, the “TGDI (Tumor Growth Delay Index)” value [1] was 1.33 and the “TS (Tumor Stabilization), number of mice” value [1] was 0. The “Best T/C%” value [1] was 74.68%, the “T/C % at day 16” value [1] was 74.68% and the “median TGD x 5” value [1] was 13.70 days. The “PR (partial regression), number of mice” value [1] was 0, the Kd (AMHRII) was 0.0553 nM and the mice found dead ([2]; 9 mice per group (groups 7, 8: 8)) was “Mouse #27 was found dead on day 27”. For the same molecule, the “maximum mean body weight loss” value ([2]; SC131-bearing nude mice (cachectic tumor), day of maximum differs per group) was 9.8%, the “maximum individual body weight loss” value ([2]; SC131-bearing nude mice, day of maximum differs per group) was 16.8% and the “tolerability (in words)” value ([2]; mouse, in vivo, iv, 20 mg/kg) was “well tolerated”. The “efficacy in combination with carboplatin and paclitaxel (in words)” value ([4]; Jacquet A., Cancer Res, 2012) was “synergistic”, the “antitumor efficacy (in words)” value ([4]; mouse, in vivo) was “display antitumor efficacy” and the “tumor volume at Day 28 vs vehicle (in words)” value ([5]; Day 28, p<0.001) was “drastically reduction of the tumor volume”. For the same molecule, the “anti-tumor activity (in words)” value ([5]; GM102 20 mg/kg i.p. twice weekly, NMRI-Foxn1nu mice) was “strong anti-tumor activity”.
